Source: PMC12736255, “Reinvestigating Pyrrol-2-One-Based Compounds: From Antimicrobial Agents to Promising Antitumor Candidates” (Pharmaceuticals, 2025)

Key:
Assay in all cases: NCI-60 single-dose screen
786-0 = type: cell-based; settings: Homo sapiens; 786-0, 10^–5 M; read-out: GI (%)
Text: (§1) In the next step, all synthesized compounds were electronically submitted and accepted for testing to the National Cancer Institute (NCI) platform, for the single dose (10^−5 M) screening against a panel of 60 human tumor cell lines, representing leukemia, melanoma, and cancers of the lung, colon, central nervous system, ovary, kidney, prostate, and breast. The results are summarized in Table 2, with the best values highlighted in red (Figures S1–S14).

A549/ATCC = type: cell-based; settings: Homo sapiens, 10^–5 M, read-out: GI (%)
Text: as §1

HL-60(TB) = type: cell-based; settings: Homo sapiens, 10^–5 M, read-out: GI (%)
Text: as §1

HCC-2998 = type: cell-based; settings: Homo sapiens; HCC-2998, 10^–5 M; read-out: GI (%)
Text: as §1

KM12 = type: cell-based; settings: Homo sapiens; KM12, 10^–5 M; read-out: GI (%)
Text: as §1

ACHN = type: cell-based; settings: Homo sapiens, 10^–5 M, read-out: GI (%)
Text: as §1

IGROV1 = type: cell-based; settings: Homo sapiens, IGROV-1; IGROV1, 10^–5 M; read-out: GI (%)
Text: as §1

LOX IMVI = type: cell-based; settings: Homo sapiens, 10^–5 M, read-out: GI (%)
Text: as §1

PC-3 = type: cell-based; settings: Homo sapiens, PC-3, PC-3, 10^–5 M; read-out: GI (%)
Text: as §1

MDA-MB-231/ATCC = type: cell-based; settings: Homo sapiens, 10^–5 M, read-out: GI (%)
Text: as §1

OVCAR-5 = type: cell-based; settings: Homo sapiens; OVCAR-5, 10^–5 M; read-out: GI (%)
Text: as §1

SK-MEL-28 = type: cell-based; settings: Homo sapiens; SK-MEL-28, 10^–5 M; read-out: GI (%)
Text: as §1

UACC-62 = type: cell-based; settings: Homo sapiens; UACC-62, 10^–5 M; read-out: GI (%)
Text: as §1

OVCAR-4 = type: cell-based; settings: Homo sapiens; OVCAR-4, 10^–5 M; read-out: GI (%)
Text: as §1

SW-620 = type: cell-based; settings: Homo sapiens; SW-620, 10^–5 M; read-out: GI (%)
Text: as §1

SK-OV-3 = type: cell-based; settings: Homo sapiens; SK-OV-3, 10^–5 M; read-out: GI (%)
Text: as §1

MALME-3M = type: cell-based; settings: Homo sapiens, 10^–5 M, read-out: GI (%)
Text: as §1

MOLT-4 = type: cell-based; settings: Homo sapiens; MOLT-4, 10^–5 M; read-out: GI (%)
Text: as §1

DU-145 = type: cell-based; settings: Homo sapiens; DU-145, 10^–5 M; read-out: GI (%)
Text: as §1

UACC-257 = type: cell-based; settings: Homo sapiens; UACC-257, 10^–5 M; read-out: GI (%)
Text: as §1

SNB-19 = type: cell-based; settings: Homo sapiens; SNB-19, 10^–5 M; read-out: GI (%)
Text: as §1

COLO205 = type: cell-based; settings: Homo sapiens, COLO 205; COLO205, 10^–5 M; read-out: GI (%)
Text: as §1

NCI-H322M = type: cell-based; settings: Homo sapiens, 10^–5 M, read-out: GI (%)
Text: as §1

OVCAR-3 = type: cell-based; settings: Homo sapiens; OVCAR-3, 10^–5 M; read-out: GI (%)
Text: as §1

CAKI-1 = type: cell-based; settings: Homo sapiens; CAKI-1, 10^–5 M; read-out: GI (%)
Text: as §1

SK-MEL-2 = type: cell-based; settings: Homo sapiens; SK-MEL-2, 10^–5 M; read-out: GI (%)
Text: as §1

HOP-92 = type: cell-based; settings: Homo sapiens; HOP-92, 10^–5 M; read-out: GI (%)
Text: as §1

NCI-H23 = type: cell-based; settings: Homo sapiens; NCI-H23, 10^–5 M; read-out: GI (%)
Text: as §1

TK-10 = type: cell-based; settings: Homo sapiens; TK-10, 10^–5 M; read-out: GI (%)
Text: as §1

CCRF-CEM = type: cell-based; settings: Homo sapiens, 10^–5 M, read-out: GI (%)
Text: as §1

T-47D = type: cell-based; settings: Homo sapiens, T47D, 10^–5 M, read-out: GI (%)
Text: as §1

RPMI-8226 = type: cell-based; settings: Homo sapiens; RPMI-8226, 10^–5 M; read-out: GI (%)
Text: as §1

A498 = type: cell-based; settings: Homo sapiens; A498, 10^–5 M; read-out: GI (%)
Text: as §1

HCT-116 = type: cell-based; settings: Homo sapiens; HCT-116, 10^–5 M; read-out: GI (%)
Text: as §1

NCI/ADR-RES = type: cell-based; settings: Homo sapiens, 10^–5 M, read-out: GI (%)
Text: as §1

SF-268 = type: cell-based; settings: Homo sapiens; SF-268, 10^–5 M; read-out: GI (%)
Text: as §1

NCI-H226 = type: cell-based, human; settings: NCI-H226, 10^–5 M; for inhibition at 10 µM: Homo sapiens, read-out: GI (%)
Text: as §1

EKVX = type: cell-based, human; settings: Homo sapiens, 10^–5 M, read-out: GI (%)
Text: as §1

| SMILES | inhibition at 10 µM (786-0) [%] | inhibition at 10 µM (A549/ATCC) [%] | inhibition at 10 µM (HL-60(TB)) [%] | inhibition at 10 µM (HCC-2998) [%] | inhibition at 10 µM (KM12) [%] | inhibition at 10 µM (ACHN) [%] | inhibition at 10 µM (IGROV1) [%] | inhibition at 10 µM (LOX IMVI) [%] | inhibition at 10 µM (PC-3) [%] | inhibition at 10 µM (MDA-MB-231/ATCC) [%] | inhibition at 10 µM (OVCAR-5) [%] | inhibition at 10 µM (SK-MEL-28) [%] | inhibition at 10 µM (UACC-62) [%] | inhibition at 10 µM (OVCAR-4) [%] | inhibition at 10 µM (SW-620) [%] | inhibition at 10 µM (SK-OV-3) [%] | inhibition at 10 µM (MALME-3M) [%] | inhibition at 10 µM (MOLT-4) [%] | inhibition at 10 µM (DU-145) [%] | inhibition at 10 µM (UACC-257) [%] | also measured |
| --- | --- | --- | --- | --- | --- | --- | --- | --- | --- | --- | --- | --- | --- | --- | --- | --- | --- | --- | --- | --- | --- |
| O=C1C(Nc2ccc(I)cc2)=CC(c2ccc(Cl)cc2)N1c1ccc(I)cc1 (centres unmarked) [3c] | 18 | 4 | 0 | 0 | 17 | 21 | 16 | 11 | 1 | 5 | 0 | 12 | 5 | 34 | 12 | 13 | 17 | 29 | 10 | 23 | inhibition at 10 µM (SNB-19): 7%; inhibition at 10 µM (COLO205): 0%; inhibition at 10 µM (NCI-H322M): 0%; inhibition at 10 µM (OVCAR-3): 9%; inhibition at 10 µM (CAKI-1): 19%; inhibition at 10 µM (SK-MEL-2): 43%; inhibition at 10 µM (HOP-92): 27%; inhibition at 10 µM (NCI-H23): 13%; inhibition at 10 µM (TK-10): 1%; inhibition at 10 µM (CCRF-CEM): 15%; inhibition at 10 µM (T-47D): 48%; inhibition at 10 µM (RPMI-8226): 30%; inhibition at 10 µM (A498): 19%; inhibition at 10 µM (HCT-116): 25%; inhibition at 10 µM (NCI/ADR-RES): 1%; inhibition at 10 µM (SF-268): 24%; inhibition at 10 µM (NCI-H226): 62%; inhibition at 10 µM (EKVX): 37% |
| N#Cc1ccc(C2C=C(Nc3ccc(I)cc3)C(=O)N2c2ccc(I)cc2)cc1 (centres unmarked) [3l] | 55 | 31 | 0 | 50 | 52 | 100 | 54 | 89 | 45 | 100 | 11 | 29 | 17 | 100 | 50 | 75 | 46 | 78 | 37 | 21 | inhibition at 10 µM (SNB-19): 35%; inhibition at 10 µM (COLO205): 46%; inhibition at 10 µM (NCI-H322M): 51%; inhibition at 10 µM (OVCAR-3): 60%; inhibition at 10 µM (CAKI-1): 62%; inhibition at 10 µM (SK-MEL-2): 100%; inhibition at 10 µM (HOP-92): 75%; inhibition at 10 µM (NCI-H23): 36%; inhibition at 10 µM (TK-10): 99%; inhibition at 10 µM (CCRF-CEM): 74%; inhibition at 10 µM (T-47D): 59%; inhibition at 10 µM (RPMI-8226): 83%; inhibition at 10 µM (A498): 88%; inhibition at 10 µM (HCT-116): 48%; inhibition at 10 µM (NCI/ADR-RES): 37%; inhibition at 10 µM (SF-268): 93%; inhibition at 10 µM (NCI-H226): 100%; GI (%) (NCI-H226): 100 ^i1%; inhibition at 10 µM (EKVX): 100% |
| O=C1C(Nc2ccc(I)cc2)=CC(c2ccc(O)c(O)c2)N1c1ccc(I)cc1 (centres unmarked) [3h] | 52 | 73 | 100 | 98 | 100 | 61 | 26 | 57 | > 70 | 42 | 22 | 75 | 62 | 100 | 100 | 64 | 100 | 100 | 40 | 68 | inhibition at 10 µM (SNB-19): 69%; inhibition at 10 µM (COLO205): 98%; inhibition at 10 µM (NCI-H322M): 34%; inhibition at 10 µM (OVCAR-3): 96%; inhibition at 10 µM (CAKI-1): 44%; inhibition at 10 µM (SK-MEL-2): 100%; inhibition at 10 µM (HOP-92): 66%; inhibition at 10 µM (NCI-H23): 73%; inhibition at 10 µM (TK-10): 50%; inhibition at 10 µM (CCRF-CEM): 100%; inhibition at 10 µM (T-47D): 65%; inhibition at 10 µM (RPMI-8226): 100%; inhibition at 10 µM (A498): 61%; inhibition at 10 µM (HCT-116): 96%; inhibition at 10 µM (NCI/ADR-RES): 35%; inhibition at 10 µM (SF-268): 82%; inhibition at 10 µM (NCI-H226): 35%; inhibition at 10 µM (EKVX): 22% |
| O=C1C(Nc2ccc(I)cc2)=CC(c2cc(C(F)(F)F)cc(C(F)(F)F)c2)N1c1ccc(I)cc1 (centres unmarked) [3f] | 29 | 16 | 59 | 2 | 13 | 49 | 0 | 17 | 25 | 42 | 9 | 9 | 0 | 69 | 20 | 10 | 0 | 89 | 5 | 0 | inhibition at 10 µM (SNB-19): 19%; inhibition at 10 µM (COLO205): 59%; inhibition at 10 µM (NCI-H322M): 10%; inhibition at 10 µM (OVCAR-3): 35%; inhibition at 10 µM (CAKI-1): 32%; inhibition at 10 µM (SK-MEL-2): 35%; inhibition at 10 µM (HOP-92): 19%; inhibition at 10 µM (NCI-H23): 12%; inhibition at 10 µM (TK-10): 57%; inhibition at 10 µM (CCRF-CEM): 100%; inhibition at 10 µM (T-47D): 100%; inhibition at 10 µM (RPMI-8226): 43%; inhibition at 10 µM (A498): 90%; inhibition at 10 µM (HCT-116): 43%; inhibition at 10 µM (NCI/ADR-RES): 7%; inhibition at 10 µM (SF-268): 21%; inhibition at 10 µM (NCI-H226): 81%; inhibition at 10 µM (EKVX): 35% |
| COc1ccc(C2C=C(Nc3ccc(I)cc3)C(=O)N2c2ccc(I)cc2)cc1OC (centres unmarked) [3j] | 0 | 5 | 0 | 0 | 0 | 0 | 0 | 8 | 0 | 0 | 0 | 0 | 0 | 0 | 0 | 0 | 0 | 0 | 0 | 0 | inhibition at 10 µM (SNB-19): 0%; inhibition at 10 µM (COLO205): 9%; inhibition at 10 µM (NCI-H322M): 0%; inhibition at 10 µM (OVCAR-3): 0%; inhibition at 10 µM (CAKI-1): 5%; inhibition at 10 µM (SK-MEL-2): 0%; inhibition at 10 µM (HOP-92): 0%; inhibition at 10 µM (NCI-H23): 8%; inhibition at 10 µM (TK-10): 0%; inhibition at 10 µM (CCRF-CEM): 0%; inhibition at 10 µM (T-47D): 6%; inhibition at 10 µM (RPMI-8226): 7%; inhibition at 10 µM (A498): 0%; inhibition at 10 µM (HCT-116): 0%; inhibition at 10 µM (NCI/ADR-RES): 0%; inhibition at 10 µM (SF-268): 3%; inhibition at 10 µM (NCI-H226): 0%; inhibition at 10 µM (EKVX): 40% |
